Article PMC4114195, “Identification of a cyclic-di-GMP-modulating response regulator that impacts biofilm formation in a model sulfate reducing bacterium” (Frontiers in Microbiology, 2014)

Assays:
Type in all cases: biochemical
DVU0408 [1] = target: T1, DVU0408 (Nitratidesulfovibrio vulgaris, UniProt Q72F10); test: HPLC, c-di-GMP hydrolysis with added GTP; conditions: 100 μM GTP, 100 μM c-di-GMP, 2 mM MnCl2; proposed allosteric at inactive GGDEF domain
T1 construct: gene DVU_0408; full length (gene 2148 bp, about 715 residues), GGDEF-EAL response regulator; E. coli
T1 sequence (Q72F10 1-715): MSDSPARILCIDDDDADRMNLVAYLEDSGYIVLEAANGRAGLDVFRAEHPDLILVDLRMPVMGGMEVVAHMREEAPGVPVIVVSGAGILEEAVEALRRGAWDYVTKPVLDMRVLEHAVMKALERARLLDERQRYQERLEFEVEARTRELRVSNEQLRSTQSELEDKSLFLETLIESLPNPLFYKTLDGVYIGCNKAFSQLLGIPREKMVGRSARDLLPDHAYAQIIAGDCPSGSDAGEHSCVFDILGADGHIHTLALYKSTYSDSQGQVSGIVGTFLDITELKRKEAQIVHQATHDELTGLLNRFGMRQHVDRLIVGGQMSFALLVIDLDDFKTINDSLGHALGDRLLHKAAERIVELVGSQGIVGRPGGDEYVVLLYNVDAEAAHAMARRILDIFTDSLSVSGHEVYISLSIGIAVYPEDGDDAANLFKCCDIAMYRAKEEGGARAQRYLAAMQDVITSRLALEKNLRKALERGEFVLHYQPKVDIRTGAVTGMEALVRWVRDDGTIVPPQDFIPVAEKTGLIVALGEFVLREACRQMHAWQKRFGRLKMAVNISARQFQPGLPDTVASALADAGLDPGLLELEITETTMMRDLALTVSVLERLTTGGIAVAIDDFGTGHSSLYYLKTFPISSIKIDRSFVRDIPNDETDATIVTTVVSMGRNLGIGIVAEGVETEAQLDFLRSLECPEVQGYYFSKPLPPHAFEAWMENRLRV

DVU0330 HD domain = target: T2, DVU0330 HD domain (Nitratidesulfovibrio vulgaris, UniProt Q72F84); test: absorbance at […] nm, phosphodiesterase assay; conditions: 5 mM bis-pNPP, 1 or 10 mM MnCl2, pH 8.0
T2 construct: gene DVU_0330; isolated HD (HDOD, no GYP motif) domain 230-412; N-terminal 8xHis-Strep II-MBP tag cut by TEV; E. coli
T2 sequence (Q72F84 230-412): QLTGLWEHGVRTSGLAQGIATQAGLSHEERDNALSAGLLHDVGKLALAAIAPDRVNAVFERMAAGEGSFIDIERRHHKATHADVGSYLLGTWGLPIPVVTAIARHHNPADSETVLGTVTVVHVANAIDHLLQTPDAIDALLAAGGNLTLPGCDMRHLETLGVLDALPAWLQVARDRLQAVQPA

DVU1181 HD-GYP domain = target: T3, DVU1181 HD-GYP domain (Nitratidesulfovibrio vulgaris, UniProt Q72CV2); test: absorbance at […] nm, phosphodiesterase assay; conditions: 5 mM bis-pNPP, 1 or 10 mM MnCl2, pH 8.0
T3 construct: gene DVU_1181; isolated HD-GYP domain 176-356; N-terminal 8xHis-Strep II-MBP tag cut by TEV; E. coli
T3 sequence (Q72CV2 176-356): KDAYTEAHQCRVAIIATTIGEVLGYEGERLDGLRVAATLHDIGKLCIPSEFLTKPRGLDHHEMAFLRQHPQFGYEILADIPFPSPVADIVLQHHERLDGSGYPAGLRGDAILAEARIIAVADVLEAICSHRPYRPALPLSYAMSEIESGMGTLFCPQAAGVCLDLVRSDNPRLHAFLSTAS

DVU2933 HD-GYP domain = target: T4, DVU2933 HD-GYP domain (Nitratidesulfovibrio vulgaris, UniProt Q727C2); test: HILIC-TOF MS, c-di-GMP hydrolysis; conditions: 100 μM c-di-GMP, 10 mM MnCl2, pH 8.0, room temperature, 24 h
T4 construct: gene DVU_2933; isolated HD-GYP domain 282-458; N-terminal 6xHis tag cut by TEV; E. coli
T4 sequence (Q727C2 282-458): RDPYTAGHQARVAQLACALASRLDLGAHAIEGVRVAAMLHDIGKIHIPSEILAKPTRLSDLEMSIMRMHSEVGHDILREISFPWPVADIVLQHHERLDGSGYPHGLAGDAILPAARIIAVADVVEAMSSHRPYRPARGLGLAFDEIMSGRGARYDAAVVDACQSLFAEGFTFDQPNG

DVU0722 HD-GYP domain = target: T5, DVU0722 HD-GYP domain (Nitratidesulfovibrio vulgaris, UniProt Q72E57); test: HILIC-TOF MS, c-di-GMP hydrolysis; conditions: 100 μM c-di-GMP, 10 mM MnCl2, pH 8.0, room temperature, 24 h
T5 construct: gene DVU_0722; isolated HD-GYP domain 336-518; N-terminal 8xHis-Strep II-MBP tag cut by TEV; E. coli
T5 sequence (Q72E57 336-518): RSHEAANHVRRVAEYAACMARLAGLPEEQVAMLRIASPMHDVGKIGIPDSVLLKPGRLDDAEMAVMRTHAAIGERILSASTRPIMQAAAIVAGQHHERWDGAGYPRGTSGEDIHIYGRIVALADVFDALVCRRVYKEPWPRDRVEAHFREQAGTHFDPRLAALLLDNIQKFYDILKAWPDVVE

DVU0408 [2] = target: T1, DVU0408; test: HPLC, phosphodiesterase assay, pGpG formed; conditions: 100 μM c-di-GMP, 2 mM MnCl2
DVUA0086 HD-GYP domain = target: T6, DVUA0086 HD-GYP domain (Nitratidesulfovibrio vulgaris, UniProt Q72WK3); test: HILIC-TOF MS, c-di-GMP hydrolysis; conditions: 100 μM c-di-GMP, 10 mM MnCl2, pH 8.0, room temperature, 24 h
T6 construct: isolated HD-GYP domain 164-363; N-terminal 6xHis tag cut by TEV; E. coli; gene on native plasmid pDV1
T6 sequence (Q72WK3 164-363): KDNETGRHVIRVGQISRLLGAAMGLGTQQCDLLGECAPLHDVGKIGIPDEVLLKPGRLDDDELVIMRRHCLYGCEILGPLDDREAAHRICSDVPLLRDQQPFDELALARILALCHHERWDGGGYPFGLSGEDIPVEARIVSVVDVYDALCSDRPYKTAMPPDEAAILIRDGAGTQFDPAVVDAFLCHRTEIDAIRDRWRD

SMILES: Nc1nc2c(ncn2[C@@H]2O[C@H](COP(=O)(O)OP(=O)(O)OP(=O)(O)O)[C@@H](O)[C@H]2O)c(=O)[nH]1 [GTP]
- HPLC, c-di-GMP hydrolysis with added GTP (DVU0408 [1]): There was an increase in the pGpG peak upon addition of GTP.

SMILES: O=[N+]([O-])c1ccc(OP(=O)(O)Oc2ccc([N+](=O)[O-])cc2)cc1 [bis-pNPP]
- absorbance at 410 nm, phosphodiesterase assay (DVU0330 HD domain): DVU0330 that lacks the GYP motif showed very low activity
- absorbance at 410 nm, phosphodiesterase assay (DVU1181 HD-GYP domain): DVU0722 and DVU1181 showed slower activity

SMILES: Nc1nc2c(ncn2[C@@H]2O[C@@H]3COP(=O)(O)O[C@H]4[C@@H](O)[C@H](n5cnc6c(=O)[nH]c(N)nc65)O[C@@H]4COP(=O)(O)O[C@H]3[C@H]2O)c(=O)[nH]1 [c-di-GMP]
- HILIC-TOF MS, c-di-GMP hydrolysis (DVU2933 HD-GYP domain): DVU2933 protein had lower activity, but again pGpG was the main product formed.
- HILIC-TOF MS, c-di-GMP hydrolysis (DVU0722 HD-GYP domain): DVU0722 protein also hydrolyzed most of the c-di-GMP to pGpG.
- HPLC, phosphodiesterase assay, pGpG formed (DVU0408 [2]): it did have PDE activity against c-di-GMP
- HILIC-TOF MS, c-di-GMP hydrolysis (DVUA0086 HD-GYP domain): DVUA0086 protein had maximum activity and completely hydrolyzed c-di-GMP
